The subject of one experiment is UTI89 biofilm. Put plainly: UTI89 type 1 dependent biofilm formation (inhibition/prevention) assay on PVC, crystal violet. It counts as cell-based, uropathogenic E. coli UTI89. In outline: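 Prevention: UTI89 grown in LB in PVC wells at 23° C with mannoside at varying concentrations for 48 h, then crystal violet stained and quantified. Disruption: 24 h UTI89 biofilm, mannoside added, grown 16 h more, then crystal violet.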

Experiment [1] has as its target T1, FimH lectin domain (residues 1-158 of UPEC J96 FimH) (Escherichia coli, UniProt P08191).
T1 construct: made in house
It counts as binding. Particulars: Table 20; compound at 100 μM.

The structures appear in SMILES notation. Like-named read-outs stand apart in the source and are kept apart here.

T1 sequence (P08191 22-179): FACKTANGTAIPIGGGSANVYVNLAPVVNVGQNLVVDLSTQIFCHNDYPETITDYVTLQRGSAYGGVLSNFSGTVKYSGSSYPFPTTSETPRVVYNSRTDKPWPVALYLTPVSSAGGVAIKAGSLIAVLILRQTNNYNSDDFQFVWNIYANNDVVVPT

Consider `CNC(=O)c1cc(C(=O)NC)cc(-c2ccc(O[C@H]3O[C@H](CO)[C@@H](O)[C@H](O)[C@@H]3O)cc2)c1` [ZFH-2056], for which, in the experiment on UTI89 biofilm (read-out: biofilm inhibition IC50), the IC50 turned out to be 740 nM. Consider `COC(=O)c1cccc(-c2ccc(O[C@H]3O[C@H](CO)[C@@H](O)[C@H](O)[C@@H]3O)cc2)c1` [Compound 1, phenyl mannoside, reference compound], for which the “DSF Melting Temp.” value in experiment [1] is 73.39 °C. In addition, the concentration for half-maximal inhibition (IC50) in the experiment on UTI89 biofilm (Escherichia coli, read-out: Biofilm Prevention IC50) was 940 nM.

In general, IC50 refers to the point on the concentration scale where inhibition reaches its midpoint.
